Test results reported in patent US20250222146A1, “Radiopharmaceuticals Targeting Somatostatin Receptor 2 and Uses Thereof” (RayzeBio, Inc., priority 2023, published 2025).
Like-named read-outs stand apart in the source and are kept apart here. Numbered stars: 1 amine (or outer) side, 2 acyl side, 3 side chain; on linkers, the order of the positions; unused ones are H or OH. Square brackets hold non-standard residues; d marks the D form. Side chains are listed from the residue outwards. Peptide text beside a SMILES is read from it. * marks the point of attachment. ξ: configuration not given here. DOTA(Lu)NH(CH2)6NHCOCH2 = O=C(CN1CCN2CCN3CCN(CC1)CC(=O)[O][Lu]([O]C(=O)C2)[O]C(=O)C3)NCCCCCCNC(=O)C*; X6 = O=C(CN1CCN2CCN3CCN(CC1)CC(=O)[O][Lu]([O]C(=O)C2)[O]C(=O)C3)NCCOCCOCCOCCNC(=O)C*; DOTA(Lu) = O=C1CN2CCN3CCN(CC(=O)*)CCN(CC2)CC(=O)[O][Lu]([O]1)[O]C(=O)C3; Ala(piperidin-4-yl) = O=C([C@H](CC1CCN([*:3])CC1)N[*:1])[*:2]; dTrp(βS-Me) = C[C@@H](c1c[nH]c2ccccc12)[C@@H](N)C(=O)O; βMeTrp(2S,3R) = C[C@H](c1c[nH]c2ccccc12)[C@H](N)C(=O)O; X11 = O=C1CN2CCN(CCN(CC(=O)*)CC2)CC(=O)[O][Ga+][O]1; X4 = C[C@@H](c1ccccc1)[C@H](N[*:1])C(=O)[*:2]; X21 = CC(c1ccccc1)[C@H](N[*:1])C(=O)[*:2]; X22 = O=C([C@H](Cc1ccc(O)nc1)N[*:1])[*:2]; Phe(3-OMe) = COc1cccc(C[C@H](N)C(=O)O)c1; dNMeW = CN[C@H](Cc1c[nH]c2ccccc12)C(=O)O; ξDihydroorotoyl = O=C1CC(C(=O)*)NC(=O)N1; Phe(4-NH2) = Nc1ccc(C[C@H](N)C(=O)O)cc1; Ethylenediamine = C(CN[*:2])N[*:1]; mTyr = N[C@@H](Cc1cccc(O)c1)C(=O)O; Hyp = O=C(O)[C@@H]1C[C@@H](O)CN1; NMeF = CN[C@@H](Cc1ccccc1)C(=O)O; 4Pal = N[C@@H](Cc1ccncc1)C(=O)O; ξThr(3R) = C[C@@H](O)C(N)C(=O)O; Cha = N[C@@H](CC1CCCCC1)C(=O)O; Gly(cPr) = N[C@H](C(=O)O)C1CC1; NMehCys = CN[C@@H](CCS)C(=O)O; NMeK = CN[C@@H](CCCCN)C(=O)O; NMeDap = CN[C@@H](CN)C(=O)O; NMeA = CN[C@@H](C)C(=O)O; CO = O=C([*:1])[*:2]; Ava = NCCCCC(=O)O

Molecular target: SSTR2 (Homo sapiens, UniProt P30874)
Sequence (P30874 whole entry): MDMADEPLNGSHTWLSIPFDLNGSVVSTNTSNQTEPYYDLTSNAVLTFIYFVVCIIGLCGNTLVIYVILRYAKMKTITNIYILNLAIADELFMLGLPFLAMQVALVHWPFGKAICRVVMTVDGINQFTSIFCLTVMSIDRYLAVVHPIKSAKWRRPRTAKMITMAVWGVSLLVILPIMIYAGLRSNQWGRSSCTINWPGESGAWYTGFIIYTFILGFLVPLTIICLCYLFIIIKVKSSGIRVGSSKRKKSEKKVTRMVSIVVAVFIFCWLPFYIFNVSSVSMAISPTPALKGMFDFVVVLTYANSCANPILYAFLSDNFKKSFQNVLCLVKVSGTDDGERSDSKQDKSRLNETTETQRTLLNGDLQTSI
Assay: SSTR binding affinity by radioligand binding competition assay ([125I]-Tyr11-Somatostatin, membrane extracts)
Settings: read-out: SSTR2 Ki
[1] = radioligand competition, [125I]-Tyr11-Somatostatin 0.1 nM, membrane extracts, Ki from IC50 by Cheng Prusoff

Structure (SMILES)	Ki [1] [nM]	Ki [nM]
C[C@@H](O)[C@@H]1NC(=O)[C@H](CCCCN)NC(=O)[C@@H](Cc2c[nH]c3ccccc23)N(C)C(=O)[C@H](Cc2ccc(O)cc2)NC(=O)[C@H](CCSCC(=O)NCCCCCCNC(=O)CN2CCN3CCN4CCN(CC2)CC(=O)[O][Lu]([O]C(=O)C3)[O]C(=O)C4)N(C)C(=O)[C@H](Cc2ccccc2)NC1=O [RB-0005330] (cyclo(F[NMehCys](DOTA(Lu)NH(CH2)6NHCOCH2)Y[dNMeW]KT))	< 1	
C[C@@H](O)[C@@H]1NC(=O)[C@H](CCCCN)NC(=O)[C@@H](Cc2c[nH]c3ccccc23)NC(=O)[C@H](Cc2ccc(O)cc2)NC(=O)[C@H](CCNC(=O)CCCCCNC(=O)CN2CCN3CCN4CCN(CC2)CC(=O)[O][Lu]([O]C(=O)C3)[O]C(=O)C4)N(C)C(=O)[C@H](Cc2ccccc2)NC1=O [RB-0005717]	10 to 33.3	
CC(C)[C@@H]1NC(=O)[C@H](CCCCN)NC(=O)[C@@H](Cc2c[nH]c3ccccc23)NC(=O)[C@H](C(c2ccccc2)c2ccccc2)NC(=O)[C@H](C)N(C)C(=O)[C@H](Cc2ccccc2)NC1=O [RB-0002596] (HELM PEPTIDE1{[O=C([C@@H](N[*:1])C(c1ccccc1)c1ccccc1)[*:2]].[dW].K.V.F.[meA]}$PEPTIDE1,PEPTIDE1,1:R1-6:R2$$$V2.0)		< 1
C[C@@H](O)C1NC(=O)[C@H](CCCCN)N(C)C(=O)[C@@H](Cc2c[nH]c3ccccc23)N(C)C(=O)[C@H](Cc2ccc(O)cc2)NC(=O)[C@H](CCSCC(=O)NCCCCCCNC(=O)CN2CCN3CCN4CCN(CC2)CC(=O)[O][Lu]([O]C(=O)C3)[O]C(=O)C4)N(C)C(=O)[C@H](Cc2ccccc2)N(C)C1=O (stereo partly drawn) [RB-0004538] (cyclo([NMeF][NMehCys](DOTA(Lu)NH(CH2)6NHCOCH2)Y[dNMeW][NMeK][ξThr(3R)]))	3.33 to 10	
C[C@@H](O)[C@@H]1NC(=O)[C@H](CCCCN)NC(=O)[C@@H](Cc2c[nH]c3ccccc23)NC(=O)[C@H](Cc2ccncc2)NC(=O)[C@H](CCSCC(=O)NCCCCCCNC(=O)CN2CCN3CCN4CCN(CC2)CC(=O)[O][Lu]([O]C(=O)C3)[O]C(=O)C4)N(C)C(=O)[C@H](Cc2ccc(O)nc2)NC1=O [RB-0003451] (cyclo([4Pal][dW]KT[X22][NMehCys](DOTA(Lu)NH(CH2)6NHCOCH2)))	3.33 to 10	
C[C@@H](O)[C@@H]1NC(=O)[C@H](CCCCN)NC(=O)[C@@H](Cc2c[nH]c3ccccc23)NC(=O)[C@H](Cc2ccc(O)cc2)NC(=O)[C@H](CCSCC(=O)NCCCCCCNC(=O)CN2CCN3CCN4CCN(CC2)CC(=O)[O][Lu]([O]C(=O)C3)[O]C(=O)C4)N(C)C(=O)[C@H]([C@@H](C)c2ccccc2)NC1=O [RB-0003278] (cyclo(KT[X4][NMehCys](DOTA(Lu)NH(CH2)6NHCOCH2)Y[dW]))	1 to 3.33	
C[C@@H](O)[C@@H]1NC(=O)[C@H](CCCCN)NC(=O)[C@@H](Cc2c[nH]c3ccccc23)NC(=O)[C@H](Cc2ccc(O)cc2)NC(=O)[C@H](CCSCC(=O)NCCCC[C@@H](NC(=O)CN2CCN3CCN4CCN(CC2)CC(=O)[O][Lu]([O]C(=O)C3)[O]C(=O)C4)C(=O)O)N(C)C(=O)[C@H](Cc2ccccc2)NC1=O [RB-0005278]	1 to 3.33	
CC(C)[C@@H]1NC(=O)[C@H](CCCCN)NC(=O)[C@@H](Cc2c[nH]c3ccccc23)NC(=O)[C@H](Cc2ccc(O)cc2)NC(=O)[C@H](CCSCC(=O)NCCCCCCNC(=O)CN2CCN3CCN4CCN(CC2)CC(=O)[O][Lu]([O]C(=O)C3)[O]C(=O)C4)N(C)C(=O)[C@H](CC2CCCCC2)NC1=O [RB-0004617] (cyclo([Cha][NMehCys](DOTA(Lu)NH(CH2)6NHCOCH2)Y[dW]KV))	1 to 3.33	
C[C@@H](O)[C@@H]1NC(=O)[C@H](CC2CCNCC2)NC(=O)[C@@H]([C@@H](C)c2c[nH]c3ccccc23)NC(=O)[C@H](Cc2ccc(O)cc2)NC(=O)[C@H](CCCCNC(=O)CN2CCN3CCN(CC2)CC(=O)[O][Ga+][O]C(=O)C3)N(C)C(=O)[C@H](Cc2ccccc2)NC1=O [RB-0006488] (cyclo(F[NMeK](X11)Y[dTrp(βS-Me)][Ala(piperidin-4-yl)]T))	1 to 3.33	
CC(C)[C@@H]1NC(=O)[C@H](CCCCN)NC(=O)[C@@H](Cc2c[nH]c3ccccc23)NC(=O)[C@H](Cc2ccc(O)cc2)NC(=O)[C@H](CCSCC(=O)NCCOCCOCCOCCNC(=O)CN2CCN3CCN4CCN(CC2)CC(=O)[O][Lu]([O]C(=O)C3)[O]C(=O)C4)N(C)C(=O)[C@H](Cc2ccccc2)NC1=O [RB-0004823] (cyclo(F[NMehCys](X6)Y[dW]KV))	< 1	
CC(C)[C@@H]1NC(=O)[C@H](CCCCN)NC(=O)[C@@H](Cc2c[nH]c3ccccc23)NC(=O)[C@H](Cc2ccc(O)cc2)NC(=O)[C@H](CCSCC(=O)NCCCCCCNC(=O)CN2CCN3CCN4CCN(CC2)CC(=O)[O][Lu]([O]C(=O)C3)[O]C(=O)C4)N(C)C(=O)[C@H](C2CC2)NC1=O [RB-0005247] (cyclo([Gly(cPr)][NMehCys](DOTA(Lu)NH(CH2)6NHCOCH2)Y[dW]KV))	3.33 to 10	
C[C@@H](O)[C@@H]1NC(=O)[C@H](CC2CCNCC2)NC(=O)[C@@H]([C@@H](C)c2c[nH]c3ccccc23)NC(=O)[C@H](Cc2ccc(O)cc2)NC(=O)[C@@H]2C[C@@H](OC(=O)NCCNC(=O)CN3CCN4CCN5CCN(CC3)CC(=O)[O][Lu]([O]C(=O)C4)[O]C(=O)C5)CN2C(=O)[C@H](Cc2ccccc2)NC1=O [RB-0006395] (cyclo(F[Hyp]([CO-Ethylenediamine-DOTA(Lu)])Y[dTrp(βS-Me)][Ala(piperidin-4-yl)]T))	< 1	
C[C@@H](O)[C@@H]1NC(=O)[C@H](CCCCN)NC(=O)[C@@H](Cc2c[nH]c3ccccc23)NC(=O)[C@H](Cc2ccncc2)NC(=O)[C@H](CCSCC(=O)NCCCCCCNC(=O)CN2CCN3CCN4CCN(CC2)CC(=O)[O][Lu]([O]C(=O)C3)[O]C(=O)C4)N(C)C(=O)[C@H]([C@@H](C)c2ccccc2)NC1=O [RB-0003447] (cyclo([4Pal][dW]KT[X4][NMehCys](DOTA(Lu)NH(CH2)6NHCOCH2)))	3.33 to 10	
COc1cccc(C[C@@H]2NC(=O)[C@H](CCCCNC(=O)CN3CCN4CCN5CCN(CC3)CC(=O)[O][Lu]([O]C(=O)C4)[O]C(=O)C5)N(C)C(=O)[C@H](Cc3ccccc3)NC(=O)[C@H]([C@@H](C)O)NC(=O)[C@H](CC3CCNCC3)NC(=O)[C@@H]([C@@H](C)c3c[nH]c4ccccc34)NC2=O)c1 [RB-0006209] (cyclo(F[NMeK](DOTA(Lu))[Phe(3-OMe)][dTrp(βS-Me)][Ala(piperidin-4-yl)]T))	1 to 3.33	
C[C@@H](O)[C@@H]1NC(=O)[C@H](CCCCN)NC(=O)[C@@H](Cc2c[nH]c3ccccc23)NC(=O)[C@H](Cc2ccc(O)cc2)NC(=O)[C@H](CCSCCC(=O)NCCCCC[C@H](NC(=O)CN2CCN3CCN4CCN(CC2)CC(=O)[O][Lu]([O]C(=O)C3)[O]C(=O)C4)C(=O)O)N(C)C(=O)[C@H](Cc2ccccc2)NC1=O [RB-0003375]	1 to 3.33	
C[C@@H](O)[C@@H]1NC(=O)[C@H](CCCCN)NC(=O)[C@@H](Cc2c[nH]c3ccccc23)NC(=O)[C@H](Cc2ccc(O)cc2)NC(=O)[C@H](CCSCC(=O)NCCCCCCNC(=O)CN2CCN3CCN4CCN(CC2)CC(=O)[O][Lu]([O]C(=O)C3)[O]C(=O)C4)N(C)C(=O)CNC1=O [RB-0004819] (cyclo(G[NMehCys](DOTA(Lu)NH(CH2)6NHCOCH2)Y[dW]KT))	< 1	
C[C@@H](O)[C@@H]1NC(=O)[C@H](CC2CCNCC2)NC(=O)[C@@H]([C@@H](C)c2c[nH]c3ccccc23)NC(=O)[C@H](Cc2ccc(O)cc2)NC(=O)[C@H](CCCCNC(=O)CCCCNC(=O)CN2CCN3CCN4CCN(CC2)CC(=O)[O][Lu]([O]C(=O)C3)[O]C(=O)C4)N(C)C(=O)[C@H](Cc2ccccc2)NC1=O [RB-0006406] (cyclo(F[NMeK]([Ava-DOTA(Lu)])Y[dTrp(βS-Me)][Ala(piperidin-4-yl)]T))	1 to 3.33	
C[C@@H](O)[C@@H]1NC(=O)[C@H](CC2CCNCC2)NC(=O)[C@@H](Cc2c[nH]c3ccccc23)NC(=O)[C@H](Cc2ccc(O)cc2)NC(=O)[C@H](CCCCNC(=O)CN2CCN3CCN4CCN(CC2)CC(=O)[O][Lu]([O]C(=O)C3)[O]C(=O)C4)N(C)C(=O)[C@H](Cc2cccc(O)c2)NC1=O [RB-0005984] (cyclo([NMeK](DOTA(Lu))Y[dW][Ala(piperidin-4-yl)]T[mTyr]))	1 to 3.33	
C[C@@H](O)[C@@H]1NC(=O)[C@H](CC2CCNCC2)NC(=O)[C@@H]([C@@H](C)c2c[nH]c3ccccc23)NC(=O)[C@H](Cc2ccc(O)cc2)NC(=O)[C@H](CNC(=O)[C@H](CCC(=O)O)NC(=O)CN2CCN3CCN4CCN(CC2)CC(=O)[O][Lu]([O]C(=O)C3)[O]C(=O)C4)N(C)C(=O)[C@H](Cc2ccccc2)NC1=O [RB-0006215] (cyclo(F[NMeDap]([Glu-DOTA(Lu)])Y[dTrp(βS-Me)][Ala(piperidin-4-yl)]T))	10 to 33.3	
CC(C)[C@@H]1NC(=O)[C@H](CCCCN)NC(=O)[C@@H](Cc2c[nH]c3ccccc23)NC(=O)[C@H](Cc2ccc(NC(=O)C3CC(=O)NC(=O)N3)cc2)NC(=O)[C@H](C)N(C)C(=O)[C@H](Cc2ccccc2)NC1=O (stereo partly shown) [RB-0002597] (cyclo(F[NMeA][Phe(4-NH2)](ξDihydroorotoyl)[dW]KV))		1 to 3.33
C[C@H](c1c[nH]c2ccccc12)[C@@H]1NC(=O)[C@H](Cc2ccc(O)cc2)NC(=O)[C@H](CCCCNC(=O)CN2CCN3CCN4CCN(CC2)CC(=O)[O][Lu]([O]C(=O)C3)[O]C(=O)C4)N(C)C(=O)[C@H](Cc2ccccc2)NC(=O)[C@H]([C@@H](C)O)NC(=O)[C@H](CC2CCNCC2)NC1=O [RB-0006069] (cyclo(F[NMeK](DOTA(Lu))Y[βMeTrp(2S,3R)][Ala(piperidin-4-yl)]T))	3.33 to 10	
CC(c1ccccc1)[C@@H]1NC(=O)[C@H]([C@@H](C)O)NC(=O)[C@H](CCCCN)NC(=O)[C@@H](Cc2c[nH]c3ccccc23)NC(=O)[C@H](Cc2ccc(O)cc2)NC(=O)[C@H](CCSCC(=O)NCCCCCCNC(=O)CN2CCN3CCN4CCN(CC2)CC(=O)[O][Lu]([O]C(=O)C3)[O]C(=O)C4)N(C)C1=O (stereo partly shown) [RB-0003281] (cyclo(KT[X21][NMehCys](DOTA(Lu)NH(CH2)6NHCOCH2)Y[dW]))	3.33 to 10	
